Measured values reported in US4006232A, “Therapeutic method of treating cardiac arrhythmias utilizing 3-substituted diphenylhydantoins” (Miles Laboratories, Inc., priority 1974, dated 1977).
Converted amounts (≈) assume the structure as drawn. Counter-ions that a name gives are not always drawn. Like-named read-outs stand apart in the source and are kept apart here.

Legend:
[1] = extent of activity of DPH; cited from earlier work
Guinea pig atria = assay: Refractory period in isolated atria, electrical stimulation (Dawes); details: Cavia porcellus, read-out: EC50 (amount necessary for increasing the minimum interval by 50 percent over control values)
Experimental: The effect of the compounds of this invention on the refractory period in the atrium was studied and compared to that hydantoin according to the procedure described by Dawes (Brit. J. Pharmacol., 1: 90, [1946]).
Guinea pig atria, suspended in an isolated organ chamber, were stimulated electrically at increasing frequencies while the resulting mechanical contractions were recorded. The minimum interval between two consecutive stimuli necessary for eliciting a mechanical response was determined before and after incubation with varying concentrations of the test compounds. The minimum interval thus determined is an indirect measure of the refractory period in the tissue, and a prolongation of this interval indicates an increased refractory period. From the increase in minimum interval observed with each concentration, the amount necessary for increasing the interval by 50 percent over control values (EC50) was determined for each compound.

in vivo = format: in vivo; details: intraperitoneal; for MLD (Minimum Lethal Dose): deaths before exposure to chloroform; for selectivity ratio: mouse, in vivo, ip, calculated with Minimum Lethal Dose data, read-out: MLD/ED50 (Therapeutic Index)
Experimental: (§1) The tests compounds were administered to groups consisting of 5 mice in varying intraperitoneal doses. Ten minutes after administration of a given dose of a compound, a mouse was transferred to a covered 300 ml glass beaker which contained a wad of cotton saturated with about 20 ml of chloroform. The animal was observed closely and removed from the beaker immediately after respiratory arrest. The heart was quickly exposed by making an incision through the abdomen, diaphragm, thorax and pericardium for visual inspection of ventricular rate and rhythm. Ventricular contractions were counted for 30 seconds. According to the procedure reported by Lawson (J. Pharmacol. Exp. Therap., 160:22 [1968]), animals with a ventricular rate not exceeding 100 contractions during the 30 second observation period were considered protected. Results obtained with each dose were used to calculate the mean effective doses (ED50) after the method of Litchfield and Wilcoxon (J. Pharmacol. Exp. Therap. 96: 99-113 [ 1949]).

[2] = tested on: ventricular rate and rhythm; assay: Antiarrhythmic activity: protection against chloroform-induced ventricular arrhythmia in mice (Lawson); format: in vivo; details: Mus musculus, ip, 10 min; intraperitoneal, 10 min before chloroform; protected = ventricular rate not exceeding 100 contractions in 30 s; groups of 5 mice; parentheses = 95% confidence limits; read-out: ED50 (95% CL)
Experimental: The antiarrhythmic activity of the compounds of this invention, specifically those enumerated in the Summary and presented as the above examples, was compared to that of diphenylhydantoin (I), 3-(3-diethylaminopropyl)- 5,5-diphenylhydantoin (II), 3-[3-(1-piperidyl)-propyl]- 5,5-diphenylhydantoin (III), and 3-(3-morpholinopropyl)-5,5-diphenylhydantoin (IV).
as §1
In Table A, the compounds of this invention are listed by the arabic numeral assigned in the Summary and the above corresponding Example Number; the Roman numerals refer to the compounds so designated above in this Example and in the Description of the Prior Art.

heart = details: prior art; cited from earlier work
[3] = prior art, cited from earlier work
[4] = guinea pig atria, electrical stimulation, indirect measure of refractory period

SMILES	EC50 (Guinea pig atria; [4]) [µg/mL]	MLD (Minimum Lethal Dose) (in vivo) [mg/kg]	selectivity ratio (in vivo)	ED50 [2] [mg/kg]	also measured
Nc1ccc(C2(c3ccccc3)NC(=O)NC2=O)cc1 (centres unmarked) [5-(4-aminophenyl)-5-phenylhydantoin]	–	–	–	–	activity relative to DPH [1]: 50%
O=C(O)/C=C\C(=O)O.O=C1NC(c2ccccc2)(c2ccccc2)C(=O)N1CCCN1CCN(c2ccccc2)CC1 [Compound 1, 3-[3-(4-phenyl-1-piperazinyl)propyl]-5,5-diphenylhydantoin maleate]	4.4	> 160	> 9.77	16.4	–
O=C1NC(c2ccccc2)(c2ccccc2)C(=O)N1CCCN1CCC(c2ccccc2)CC1 [Compound 2, 3-[3-(4-phenyl-1-piperidyl)propyl]-5,5-diphenylhydantoin]	1.1 (≈ 2.43 µM)	320	23.7	13.5	–
O=C1NC(c2ccccc2)(c2ccccc2)C(=O)N1CCN1CC=C(c2ccccc2)CC1 [Compound 4, 5,5-diphenyl-3-[2-(4-phenyl-1,2,3,6-tetrahydropyridyl)ethyl]hydantoin hydrochloride]	–	> 178	> 1.85	96	EC50 (Guinea pig atria): 5.7 µg/mL
Cl.O=C1NC(c2ccccc2)(c2ccccc2)C(=O)N1CCCN1CCC(O)(c2ccccc2)CC1 [Compound 5, 5,5-diphenyl-3-[3-(4-hydroxy-4-phenyl-1-piperidyl)propyl]hydantoin hydrochloride]	–	31	5.35	5.8	EC50 (Guinea pig atria): > 10 µg/mL
CC(C)(C)NCC(O)CN1C(=O)NC(c2ccccc2)(c2ccccc2)C1=O.Cl (centres unmarked) [Compound 6, 3-(3-t-butylamino-2-hydroxypropyl)-5,5-diphenylhydantoin hydrochloride]	1.5	100	10.6	9.4	–
Cl.O=C1NC(c2ccc(Cl)cc2)(c2ccc(Cl)cc2)C(=O)N1CCCN1CCC(c2ccccc2)CC1 [Compound 8, 3-[3-(4-phenyl-1-piperidyl)propyl]-5,5-di(4-chlorophenyl)hydantoin hydrochloride]	> 10	> 178	> 2.28	75	–
COc1ccc(C2(c3ccc(OC)cc3)NC(=O)N(CCCN3CCC(c4ccccc4)CC3)C2=O)cc1.Cl [Compound 10, 3-[3-(4-phenyl-1-piperidyl)propyl]-5,5-di(4-methoxyphenyl)hydantoin hydrochloride]	6.4	> 178	> 5.24	34	–
Cl.O=C1NC(c2ccccc2)(c2ccc(Br)cc2)C(=O)N1CCCN1CCC(c2ccccc2)CC1 (centres unmarked) [Compound 11, 3-[3-(4-phenyl-1-piperidyl)propyl]-5-(4-bromophenyl)-5-phenylhydantoin hydrochloride]	4	> 100	> 2.98	33.5	–
Cc1ccc(C2(c3ccccc3)NC(=O)N(CCCN3CCC(c4ccccc4)CC3)C2=O)cc1.O=C(O)/C=C\C(=O)O (centres unmarked) [Compound 12, 3-[3-(4-phenyl-1-piperidyl)propyl]-5-phenyl-5-(4-tolyl)hydantoin maleate]	4.8	> 100	> 5.13	19.5	–
Cc1ccc(C2(c3ccc(C)cc3)NC(=O)N(CCCN3CCC(c4ccccc4)CC3)C2=O)cc1 [Compound 13, 3-[3-(4-phenyl-1-piperidyl)propyl]-5,5-di(4-tolyl)hydantoin]	> 10	> 100	> 22.2	4.5	–
O=C1NC(c2ccccc2)(c2ccc([N+](=O)[O-])cc2)C(=O)N1CCCN1CCC(c2ccccc2)CC1 (centres unmarked) [Compound 14, 3-[3-(4-phenyl-1-piperidyl)propyl]-5-(4-nitrophenyl)-5-phenylhydantoin]	8.3 (≈ 16.6 µM)	> 100	> 9.52	10.5	–
Nc1ccc(C2(c3ccccc3)NC(=O)N(CCCN3CCC(c4ccccc4)CC3)C2=O)cc1 (centres unmarked) [Compound 15, 3-[3-(4-phenyl-1-piperidyl)propyl]-5-(4-aminophenyl)-5-phenylhydantoin]	3.7 (≈ 7.9 µM)	> 100	> 29.4	3.4	–
Cc1ccc(C2(c3ccc(C)cc3)NC(=O)N(CCCN3CCC(O)(c4ccccc4)CC3)C2=O)cc1 [Compound 18, 3-[3-(4-hydroxy-4-phenyl-1-piperidyl)propyl]-5,5-di-(4-tolyl)hydantoin]	–	> 100	> 4.17	24	EC50 (Guinea pig atria): 1.9 µg/mL (≈ 3.82 µM)
O=C1NC(=O)C(c2ccccc2)(c2ccccc2)N1 [I, 5,5-diphenyl-2,4-imidazolidinedione]	20 (≈ 79.3 µM)	1000	–	394	action on ventricular arrhythmias induced by digitalis (heart): antagonize ventricular arrhythmias induced by digitalis; atrio-ventricular nodal conduction (heart): enhances atrio-ventricular nodal conduction; effective refractory period (heart): reduces the effective refractory period; ventricular automaticity (heart): depresses ventricular automaticity; side effects of large doses ([3]; large doses): atrio-ventricular blockage, bradycardia, or even cardiac arrest; untoward side effects [3]: dizziness, nausea, emesis, nystigmus, and ataxia
CCN(CC)CCCN1C(=O)NC(c2ccccc2)(c2ccccc2)C1=O [II, 3-(3-diethylaminopropyl)-5,5-diphenylhydantoin, reference compound]	–	56	4	14	–
O=C1NC(c2ccccc2)(c2ccccc2)C(=O)N1CCCN1CCCCC1 [III, 3-[3(1-piperidyl)propyl]-5,5-diphenylhydantoin, reference compound]	–	31	1.63	19	–
O=C1NC(c2ccccc2)(c2ccccc2)C(=O)N1CCCN1CCOCC1 [IV, 3-(3-morpholinopropyl)-5,5-diphenylhydantoin, reference compound]	–	178	2.34	76	–
